Data: patent US11945847B2, “Optogenetic induction of neurodegenerative disease pathologies” (UNIVERSITY OF PITTSBURGH—OF THE COMMONWEALTH SYSTEM OF …, priority 2017, dated 2024)

Tests used:
[1] = test system: live cells; experiment: Blue light-induced clustering/aggregation of CRY2OLIG constructs visualized in live cells; format: cell-based; settings: specific blue light stimulation paradigms
Excerpt: FIGS. 2A-2B describe methods to generate neuropathological aggregate proteins containing an LCD/IDR/Prion-like domain with light using TDP-43 and CRY2OLIG as an example. Various protein arrangements and blue light exposure paradigms were developed to induce protein aggregation of proteins and protein fragments containing LCD/IDR/prion-like domains, promote the mislocalization of nuclear proteins and recapitulate the neuropathology of neurodegenerative diseases. TDP-43 is a predominantly nuclear protein that contains an IDR/IDD/prion-like domain, and is mislocalized and aggregated in ALS, FTD, and some AD patients, as an example. DNA sequences were engineered to generate amino acid sequences that encode for a the CRY2OLIG protein that clusters when exposed to blue light generated a fusion protein either the entire TDP-43 protein (cry2-TDP43-mCh) or just the low complexity domain (LCD/IDD/prion-like domain), which makes TDP-43 aggregation prone (Cry2-274-mCh). As a control, CRY2OLIG alone was used. All constructs were fused to a fluorescent protein called mCherry (mCh) to visualize the proteins in live cells.

[2] = test system: HEK293 cells; experiment: Fluorescence recovery after photobleaching (FRAP) of light-induced TDP-43 inclusions; format: cell-based; settings: persistent / chronic blue light-induced inclusions
Excerpt: (§1) FIGS. 4A-4E show light-induced aggregation of low-complexity domain proteins. Optogenetic TDP-43 fragments containing the low-complexity domain (LCD) undergo progressive aggregation with light stimulation. […] (FIGS. 4C-4D) Optogenetic LCD fragments also continue to aggregate following brief light pulses, growing in size over time. (FIG. 4E) Persistent blue light stimulation of the TDP-43 LCD forms intracellular aggregates in the cells.
FIGS. 5A-5K show chronic blue light stimulation induces optoTDP43 mislocalization and aggregation that recapitulates pathological hallmarks seen in patient CNS tissue. HEK293 cells expressing optoTDP43-mCh were exposed to 488 nm LED stimulation or darkness for up to 36 hours. […] (FIG. 5E) Fluorescence recovery after photobleaching (FRAP) imaging was performed to assess dynamicity of optoTDP43 structures. […] (FIG. 5F) Detergent-solubility of optoTDP43 structures was assessed by subcellular fractionation to confirm aggregated state of light-induced optoTDP43 granules. […] Human ReN neurons expressing TDP43-mCh or optoTDP43 were exposed to chronic blue light stimulation and viability was simultaneously monitored by longitudinal imaging.

[3] = test system: HEK293 cells; experiment: Chronic blue light stimulation: optoTDP43 mislocalization and aggregation; format: cell-based
Protocol: (§2) FIGS. 5A-5K show chronic blue light stimulation induces optoTDP43 mislocalization and aggregation that recapitulates pathological hallmarks seen in patient CNS tissue. HEK293 cells expressing optoTDP43-mCh were exposed to 488 nm LED stimulation or darkness for up to 36 hours. […] (FIG. 5E) Fluorescence recovery after photobleaching (FRAP) imaging was performed to assess dynamicity of optoTDP43 structures. […] (FIG. 5F) Detergent-solubility of optoTDP43 structures was assessed by subcellular fractionation to confirm aggregated state of light-induced optoTDP43 granules. […] In addition to increased insolubility of exogenous, full-length optoTDP43 (top band), chronic blue light exposure also results in recruitment of aberrant optoTDP43 cleavage products (middle bands), as well as endogenous full-length TDP-43 and disease-relevant cleavage products (bottom bands), to the detergent-insoluble, urea-soluble fraction of cell lysates as is observed in patient tissue. (FIG. 5G) To confirm direct recruitment of non-optogenetic TDP-43 species to exogenous light-induced optoTDP43 inclusions, EGFP-tagged TDP-43 was co-expressed with optoTDP43 or the Cry2 photoreceptor-only control. […] Human ReN neurons expressing TDP43-mCh or optoTDP43 were exposed to chronic blue light stimulation and viability was simultaneously monitored by longitudinal imaging.

[4] = test system: HEK293 cells; experiment: Detergent-solubility by subcellular fractionation; format: cell-based; settings: with and without light treatment; chronic blue light stimulation
Protocol: as §2

[5] = biological target: T1, EGFP-tagged TDP-43 (Homo sapiens, UniProt Q13148); experiment: Recruitment of co-expressed EGFP-tagged TDP-43 to light-induced inclusions (co-localization); format: cell-based; settings: chronic blue light stimulation
T1 construct: expressed in transfected cells
Protocol: as §2

[6] = test system: HEK293 cells; experiment: Immunofluorescence analysis of pathological hallmarks of light-induced optoTDP43 aggregates; format: cell-based
Protocol: FIGS. 5A-5K show chronic blue light stimulation induces optoTDP43 mislocalization and aggregation that recapitulates pathological hallmarks seen in patient CNS tissue. HEK293 cells expressing optoTDP43-mCh were exposed to 488 nm LED stimulation or darkness for up to 36 hours. […] (FIG. 5E) Fluorescence recovery after photobleaching (FRAP) imaging was performed to assess dynamicity of optoTDP43 structures. […] (FIG. 5F) Detergent-solubility of optoTDP43 structures was assessed by subcellular fractionation to confirm aggregated state of light-induced optoTDP43 granules. […] In addition to increased insolubility of exogenous, full-length optoTDP43 (top band), chronic blue light exposure also results in recruitment of aberrant optoTDP43 cleavage products (middle bands), as well as endogenous full-length TDP-43 and disease-relevant cleavage products (bottom bands), to the detergent-insoluble, urea-soluble fraction of cell lysates as is observed in patient tissue. (FIG. 5G) To confirm direct recruitment of non-optogenetic TDP-43 species to exogenous light-induced optoTDP43 inclusions, EGFP-tagged TDP-43 was co-expressed with optoTDP43 or the Cry2 photoreceptor-only control. […] (FIG. 5H-5J) Immunofluorescence analysis was performed on light-induced optoTDP43 aggregates to confirm pathological hallmarks seen in patient tissue. optoTDP43 inclusions appear to be (FIG. 5H) ubiquitinated, (FIG. 5I) hyperphosphorylated, and (FIG. 5J) p62-positive, all of which have been observed with TDP-43 inclusions in patient CNS. (FIG. 5K) Automated high-throughput confocal microscopy was performed to assess the neurotoxicity of light-induced optoTDP43 inclusions. Human ReN neurons expressing TDP43-mCh or optoTDP43 were exposed to chronic blue light stimulation and viability was simultaneously monitored by longitudinal imaging.

[7] = test system: Human ReN neurons; experiment: Neurotoxicity by automated high-throughput confocal longitudinal imaging; format: cell-based; settings: chronic blue light stimulation
Protocol: as §2

[8] = test system: HEK cells; experiment: Light-induced oligomerization of optogenetic TDP-43 fragments, live confocal microscopy; format: cell-based; settings: for oligomerization after a brief pulse of blue light: 8 sec, live confocal microscopy; for oligomerization after a brief pulse of blue light / persistence of oligomers: 10% laser power, 488 nm; for persistence of oligomers: after brief pulse 8 sec
Excerpt: as §1
Beyond protein aggregation, this system creates light-induced pathologies that mimic key pathological features found in patients making it unique compared to overexpression systems. The TDP-43 protein, which contains an LCD, was combined with the CRY2OLIG photoreceptor domain which clusters when exposed to blue light and becomes insoluble and aggregated with persistent light treatment. Fusion proteins of the full length and partial LCD sequence were generated to recapitulate human neurodegenerative disease pathology, including the cytoplasmic mislocalization of nuclear proteins that occurs in patients with ALS and FTD. This system could induce neurodegenerative disease protein aggregates in live HEK cells by exposing them to various blue light stimuli paradigms (FIGS. 4-5). In addition, biochemical hallmarks of ALS, FTD, and AD (FIG. 7) were produced showing that the cell is responding to the light-induced aggregates as observed in patient CNS despite the addition of these tags. […] Employing this DNA arrangement and light stimulation system as an example, cytoplasmic TDP-43 aggregates were obtained that are also ubiquitinylated, cleaved, and hyperphosphorylated as observed in ALS, FTD, and AD patients. TDP-43 pathology is also found in AD as well as Chronic Traumatic Encephalopathy (CTE) thus highlighting the potential disease relevance of this work. In addition, a protein arrangement and light stimulation paradigm was developed to induce the aggregation of α-synuclein (FIG. 6), which is found in the CNS of patients diagnosed with Parkinson's Disease and Lewy Body Dementia. Methods were also developed to induce intracellular aggregation of Tau protein using both the Cry-PHR and LOV photoreceptors (FIG. 7) and persistent blue light stimulation. These tau tangles are pathological hallmarks of AD, FTD and CTE in HEK cells. […] Finally, it was shown that this method can be utilized to seed aggregations, as aggregates of TDP-43 formed using this method recruit endogenous TDP-43 to seed the pathogenic neuropathology (FIGS. 5F, 5G).

[9] = test system: HEK cells; experiment: Acute blue light stimulation: pathological aggregate formation and toxicity; format: cell-based
Excerpt: FIG. 10B is a schematic of a screening pipeline to use the induction of neurodegenerative disease pathology to identify therapeutic compounds that rescue toxicity and prevent or remove the formation of the induced neurodegenerative disease pathology.

[10] = Aggregation potential of CRY2 or VVD fusion proteins by protein arrangement; format: cell-based; settings: protein arrangement and light stimulation paradigm
Excerpt: FIGS. 9A-9B show the aggregation potential of CRY2 or VVD fusion proteins based on the protein arrangement and light stimulation paradigm combination. Studies indicate that the ability of Cry2 or VVD photoreceptor to stimulate clustering and activation are dependent on the protein arrangement as well as the light stimulation paradigm.

[11] = cited from earlier work
[12] = biological target: the molecule itself; experiment: self-association in live cells on blue light, mCherry fluorescence

T1 sequence (Q13148 whole entry): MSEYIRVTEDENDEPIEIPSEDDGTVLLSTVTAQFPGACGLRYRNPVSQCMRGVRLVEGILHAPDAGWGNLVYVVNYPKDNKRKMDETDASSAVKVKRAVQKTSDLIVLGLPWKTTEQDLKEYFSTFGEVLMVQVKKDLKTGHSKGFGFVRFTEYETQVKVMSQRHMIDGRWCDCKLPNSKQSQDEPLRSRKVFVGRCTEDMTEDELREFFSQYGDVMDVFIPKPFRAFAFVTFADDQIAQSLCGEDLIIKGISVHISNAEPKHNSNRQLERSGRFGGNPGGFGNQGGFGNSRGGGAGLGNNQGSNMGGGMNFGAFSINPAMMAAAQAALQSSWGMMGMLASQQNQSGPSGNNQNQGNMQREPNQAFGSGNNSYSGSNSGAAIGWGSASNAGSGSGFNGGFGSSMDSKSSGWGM

## optoTDP43: CRY2OLIG fused to the entire TDP-43 protein and mCherry
[1]
  clustering / aggregation with blue light stimulation (reversibility): forms irreversible aggregates
[2]
  fluorescence recovery after photobleaching (FRAP): Lack of fluorescence recovery
[3]; 488 nm LED stimulation up to 36 hours, confirmed by nuclear/cytoplasmic fractionation
  localization: gradual cytoplasmic mislocalization
[3]; simultaneous chronic blue light exposure and high-throughput automated confocal microscopy
  aggregation: increases in propensity with increasing light exposure
[4]
  detergent-solubility: drastic shift to the insoluble fraction
[5]
  co-localization with EGFP-TDP43: strong co-localization
[6]
  p62 staining of inclusions: p62-positive
  phosphorylation of inclusions: hyperphosphorylated
  ubiquitination of inclusions: ubiquitinated
[7]
  neuron survival / viability: significantly decreased viability over time

## optoLCD: CRY2OLIG fused to just the low complexity domain of TDP-43 and mCherry
[1]
  clustering / aggregation with blue light stimulation (reversibility): forms irreversible aggregates
[8]
  oligomerization after a brief pulse of blue light: rapidly oligomerize
  persistence of oligomers: persist much longer than the Cry2 photoreceptor alone
[2]
  fluorescence recovery after photobleaching (FRAP): do not recover from FRAP
[9]; acute stimulation
  time to formation of pathological aggregates: ≤ 1 hour
[9]; aggregates grow in size over time
  toxicity of aggregates: become toxic over time

## TDP-43-CRY2OLIG-mCh: full length TDP-43, Cry2olig, mCherry reporter arrangement
[10]
  ability to aggregate: mislocalizes but does not exhibit the ability to aggregate

## optoRRM2+LCD: Optogenetic C-terminal fragment of TDP-43 containing RRM2 and the low-complexity domain
[8]
  oligomerization after a brief pulse of blue light: rapidly oligomerize
  persistence of oligomers: persist much longer than the Cry2 photoreceptor alone

B1: NcVVDY50W: NcVivid Y50W substitution (protein)
chain: HTLYAPGGYDIMGWLIQIMNRPNPQVELGPVDTSCALILCDLKQKDTPIVYASEAFLYMTGYSNAEVLGRNCRFLQSPDGMVKPKSTRKYVDSNTINTMRKAIDRNAEVQVEVVNFKKNGQRFVNFLTMIPVRDETGEYRYSMGFQCETE
[11]; Y50W change
  dissipation from the dimerized state: slower ability to dissipate from the dimerized state

B2: CRY2OLIG-mCh (other)
chain: MKMDKKTIVWFRRDLRIEDNPALAAAAHEGSVFPVFIWCPEEEGQFYPGRASRWWMKQSLAHLSQSLKALGSDLTLIKTHNTISAILDCIRVTGATKVVFNHLYDPVSLVRDHTVKEKLVERGISVQSYNGDLLYEPWEIYCEKGKPFTSFNSYWKKCLDMSIESVMLPPPWRLMPITAAAEAIWACSIEELGLENEAEKPSNALLTRAWSPGWSNADKLLNEFIEKQLIDYAKNSKKVVGNSTSLLSPYLHFGEISVRHVFQCARMKQIIWARDKNSEGEESADLFLRGIGLREYSRYICFNFPFTHEQSLLSHLRFFPWDADVDKFKAWRQGRTGYPLVDAGMRELWATGWMHNRIRVIVSSFAVKFLLLPWKWGMKYFWDTLLDADLECDILGWQYISGSIPDGHELDRLDNPALQGAKYDPEGEYIRQWLPELARLPTEWIHHPWDAPLTVLKASGVELGTNYAKPIVDIDTARELLAKAISRTRGAQIMIGAA
notes: also called Cry2-mCh; Cry2 photoreceptor-only control; not shown: mCherry reporter and any linker
[12]
  binding result: binds

B3: Cry2-mCh: As a control, CRY2OLIG alone fused to mCherry (protein)
chain: MKMDKKTIVWFRRDLRIEDNPALAAAAHEGSVFPVFIWCPEEEGQFYPGRASRWWMKQSLAHLSQSLKALGSDLTLIKTHNTISAILDCIRVTGATKVVFNHLYDPVSLVRDHTVKEKLVERGISVQSYNGDLLYEPWEIYCEKGKPFTSFNSYWKKCLDMSIESVMLPPPWRLMPITAAAEAIWACSIEELGLENEAEKPSNALLTRAWSPGWSNADKLLNEFIEKQLIDYAKNSKKVVGNSTSLLSPYLHFGEISVRHVFQCARMKQIIWARDKNSEGEESADLFLRGIGLREYSRYICFNFPFTHEQSLLSHLRFFPWDADVDKFKAWRQGRTGYPLVDAGMRELWATGWMHNRIRVIVSSFAVKFLLLPWKWGMKYFWDTLLDADLECDILGWQYISGSIPDGHELDRLDNPALQGAKYDPEGEYIRQWLPELARLPTEWIHHPWDAPLTVLKASGVELGTNYAKPIVDIDTARELLAKAISRTRGAQIMIGAA
modifications: left off: large carriers
notes: As a control, CRY2OLIG alone fused to mCherry
[1]
  clustering / aggregation with blue light stimulation (reversibility): reversibly clusters
[8]; after brief pulse of blue light
  disassembly: ~10 min
[5]
  co-localization with EGFP-TDP43: no co-localization

B4: CRY2OLIG: Cryptochrome 2 PHR Domain with E490G substitution (protein)
chain: MKMDKKTIVWFRRDLRIEDNPALAAAAHEGSVFPVFIWCPEEEGQFYPGRASRWWMKQSLAHLSQSLKALGSDLTLIKTHNTISAILDCIRVTGATKVVFNHLYDPVSLVRDHTVKEKLVERGISVQSYNGDLLYEPWEIYCEKGKPFTSFNSYWKKCLDMSIESVMLPPPWRLMPITAAAEAIWACSIEELGLENEAEKPSNALLTRAWSPGWSNADKLLNEFIEKQLIDYAKNSKKVVGNSTSLLSPYLHFGEISVRHVFQCARMKQIIWARDKNSEGEESADLFLRGIGLREYSRYICFNFPFTHEQSLLSHLRFFPWDADVDKFKAWRQGRTGYPLVDAGMRELWATGWMHNRIRVIVSSFAVKFLLLPWKWGMKYFWDTLLDADLECDILGWQYISGSIPDGHELDRLDNPALQGAKYDPEGEYIRQWLPELARLPTEWIHHPWDAPLTVLKASGVELGTNYAKPIVDIDTARELLAKAISRTRGAQIMIGAA
[11]; E490G mutation versus endogenous sequence
  efficiency of clustering upon blue light stimulation: slightly increased efficiency of clustering
